PubChem BioAssay (NCI)
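Compound exposure: 48 hours, 5 concentrations, 96-well plates. TGI: concentration producing complete growth inhibition.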

Legend:
Experiment in all cases: growth of human tumour cells (NCI), 48 h
[1] = system: 786-0 renal
[2] = system: A549 NSCLC
[3] = system: ACHN renal
[4] = system: BT-549 breast
[5] = system: CCRF-CEM leukemia
[6] = system: COLO 205 colon
[7] = system: DU-145 prostate
[8] = system: EKVX NSCLC
[9] = system: HCC-2998 colon
[10] = system: HCT-116 colon
[11] = system: HCT-15 colon
[12] = system: HL-60(TB) leukemia
[13] = system: HOP-62 NSCLC
[14] = system: HOP-92 NSCLC
[15] = system: HS 578T breast
[16] = system: HT29 colon
[17] = system: IGROV1 ovarian
[18] = system: K-562 leukemia
[19] = system: KM12 colon
[20] = system: M14 melanoma
[21] = system: MALME-3M melanoma
[22] = system: MCF7 breast
[23] = system: MDA-MB-231 breast
[24] = system: MDA-MB-435
[25] = system: MDA-N
[26] = system: MOLT-4 leukemia
[27] = system: NCI-H226 lung
[28] = system: NCI-H23 lung
[29] = system: NCI-H460 lung
[30] = system: NCI-H522 lung
[31] = system: NCI/ADR-RES ovarian
[32] = system: OVCAR-3 ovarian
[33] = system: OVCAR-4 ovarian
[34] = system: OVCAR-5 ovarian
[35] = system: OVCAR-8 ovarian
[36] = system: PC-3 prostate
[37] = system: RPMI-8226 leukemia
[38] = system: RXF 393 renal
[39] = system: SF-268 CNS
[40] = system: SF-295 CNS
[41] = system: SF-539 CNS
[42] = system: SK-MEL-28 melanoma
[43] = system: SK-MEL-5 melanoma
[44] = system: SK-OV-3 ovarian
[45] = system: SN12C renal
[46] = system: SNB-19 CNS
[47] = system: SNB-75 CNS
[48] = system: SR leukemia
[49] = system: SW-620 colon
[50] = system: T-47D breast
[51] = system: TK-10 renal
[52] = system: U251 CNS
[53] = system: UACC-257 melanoma
[54] = system: UACC-62 melanoma
[55] = system: UO-31 renal
[56] = system: A498 renal
[57] = system: CAKI-1 renal
[58] = system: DLD-1 colon
[59] = system: DMS 114 small cell lung
[60] = system: DMS 273 small cell lung
[61] = system: HOP-18 NSCLC
[62] = system: KM20L2 colon
[63] = system: LOX IMVI melanoma
[64] = system: M19-MEL melanoma
[65] = system: SK-MEL-2 melanoma
[66] = system: SNB-78 CNS

Cn1cc(NC(=O)Nc2cc(C(=O)Nc3cc(C(=O)Nc4ccc(S(=O)(=O)O)c5cc(S(=O)(=O)O)ccc45)n(C)c3)n(C)c2)cc1C(=O)Nc1cc(C(=O)Nc2ccc(S(=O)(=O)O)c3cc(S(=O)(=O)O)ccc23)n(C)c1
TGI [1]: > 100 µM
TGI [2]: > 100 µM
TGI [3]: > 100 µM
TGI [4]: > 100 µM
TGI [5]: > 100 µM
TGI [6]: > 100 µM
TGI [7]: > 100 µM
TGI [8]: > 100 µM
TGI [9]: > 100 µM
TGI [10]: > 100 µM
TGI [11]: > 100 µM
TGI [12]: > 100 µM
TGI [13]: > 100 µM
TGI [14]: > 100 µM
TGI [15]: > 100 µM
TGI [16]: > 100 µM
TGI [17]: > 100 µM
TGI [18]: > 100 µM
TGI [19]: > 100 µM
TGI [20]: > 100 µM
TGI [21]: > 100 µM
TGI [22]: > 100 µM
TGI [23]: > 100 µM
TGI [24]: > 100 µM
TGI [25]: > 100 µM
TGI [26]: > 100 µM
TGI [27]: > 100 µM
TGI [28]: > 100 µM
TGI [29]: > 100 µM
TGI [30]: > 100 µM
TGI [31]: > 100 µM
TGI [32]: > 100 µM
TGI [33]: > 100 µM
TGI [34]: > 100 µM
TGI [35]: > 100 µM
TGI [36]: > 100 µM
TGI [37]: > 100 µM
TGI [38]: > 100 µM
TGI [39]: > 100 µM
TGI [40]: > 100 µM
TGI [41]: > 100 µM
TGI [42]: > 100 µM
TGI [43]: > 100 µM
TGI [44]: > 100 µM
TGI [45]: > 100 µM
TGI [46]: > 100 µM
TGI [47]: > 100 µM
TGI [48]: > 100 µM
TGI [49]: > 100 µM
TGI [50]: > 100 µM
TGI [51]: > 100 µM
TGI [52]: > 100 µM
TGI [53]: > 100 µM
TGI [54]: > 100 µM
TGI [55]: > 100 µM

CC(=O)Oc1c2c(c(O)c3ccccc13)C(n1cnc3c(ncn3C3OC(CO)C4OC(C)(C)OC43)c1=N)CCC2 (configuration not stated)
TGI [1]: 27.8 µM
TGI [56]: 33.3 µM
TGI [2]: 35.4 µM
TGI [3]: 30.9 µM
TGI [57]: 50.1 µM
TGI [5]: 25.3 µM
TGI [6]: 37.6 µM
TGI [58]: 27.4 µM
TGI [59]: 21.7 µM
TGI [60]: 40.6 µM
TGI [8]: 36.9 µM
TGI [9]: 28.4 µM
TGI [11]: 29.3 µM
TGI [12]: 22.3 µM
TGI [61]: 34.6 µM
TGI [13]: 30.6 µM
TGI [14]: 39.1 µM
TGI [16]: 29.2 µM
TGI [17]: 40.9 µM
TGI [18]: 30 µM
TGI [19]: 29 µM
TGI [62]: 53.5 µM
TGI [63]: 21 µM
TGI [64]: 23.8 µM
TGI [21]: 23.4 µM
TGI [26]: 35.9 µM
TGI [27]: 52.8 µM
TGI [28]: 36.7 µM
TGI [29]: 62.4 µM
TGI [30]: 19.3 µM
TGI [32]: 27.8 µM
TGI [34]: 35.9 µM
TGI [35]: 23.9 µM
TGI [37]: 18.7 µM
TGI [38]: 32.3 µM
TGI [39]: 30.7 µM
TGI [40]: 27 µM
TGI [41]: 32.2 µM
TGI [65]: 29.4 µM
TGI [42]: 31.8 µM
TGI [43]: 24.5 µM
TGI [44]: 33.1 µM
TGI [45]: 37.9 µM
TGI [46]: 30.3 µM
TGI [47]: 32.3 µM
TGI [66]: 59.6 µM
TGI [49]: 29.6 µM
TGI [51]: 35.9 µM
TGI [52]: 33.3 µM
TGI [53]: 21.8 µM
TGI [54]: 29 µM
TGI [55]: 29.8 µM
